Assay results published in US8247211B2, “Glycopeptide antibiotics” (American Cyanamid Company, priority 2001, dated 2012).
Converted amounts (≈) assume the structure as drawn.

Key:
Experiment in all cases: In vitro antibacterial evaluation: minimum inhibitory concentration (MIC), broth dilution method
Type in all cases: cell-based
[1] = tested on: Escherichia coli; conditions: 18 hours at 35° C.
Summary of the method: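 Susceptibility determined by NCCLS-recommended broth dilution (M7-A2), Muller-Hinton II […]. Concentration span 64-0.06 μg/mL, inoculum 5×10^5 CFU/mL. Isolates include strains resistant to methicillin, penicillin and/or vancomycin.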

[2] = tested on: Enterococcus sp.; conditions: 18 hours at 35° C.
Summary of the method: (§1)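 MIC by broth dilution in Mueller-Hinton II medium following NCCLS M7-A2. Inoculum was 5×10^5 CFU/mL and antibiotic was tested over 64-0.06 μg/mL. Gram-positive panel included clinical isolates resistant to methicillin, penicillin and/or vancomycin.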

[3] = tested on: Staphylococcus sp.
Summary of the method: as §1

[4] = tested on: Streptococcus sp.; conditions: 18 hours at 35° C.
Summary of the method: as §1

[5] = broth dilution, inoculum 5×10^5 CFU/mL

MIC Escherichia coli (ATCC 25922) ([1]; Escherichia coli (ATCC 25922)): 64 µg/mL (≈ 43.9 µM)
MIC Escherichia coli (GC 4559) ([1]; Escherichia coli (GC 4559)): 64 µg/mL (≈ 43.9 µM)
MIC Escherichia coli (GC 4560) ([1]; Escherichia coli (GC 4560)): 8 µg/mL (≈ 5.49 µM)
MIC Enterococcus avium (GC 4558) ([2]; Enterococcus avium (GC 4558)): 4 µg/mL (≈ 2.74 µM)
MIC Enterococcus faecalis (ATCC 29212) ([2]; Enterococcus faecalis (ATCC 29212)): 16 µg/mL (≈ 11 µM)
MIC Enterococcus faecalis (GC 2242) ([2]; Enterococcus faecalis (GC 2242)): 8 µg/mL (≈ 5.49 µM)
MIC Enterococcus faecalis (GC 2691) ([2]; Enterococcus faecalis (GC 2691)): 8 µg/mL (≈ 5.49 µM)
MIC Enterococcus faecalis (GC 3059) ([2]; Enterococcus faecalis (GC 3059)): 8 µg/mL (≈ 5.49 µM)
MIC Enterococcus faecalis (GC 4552) ([2]; Enterococcus faecalis (GC 4552)): 16 µg/mL (≈ 11 µM)
MIC Enterococcus faecalis (GC 4553) ([2]; Enterococcus faecalis (GC 4553)): 8 µg/mL (≈ 5.49 µM)
MIC Enterococcus faecalis (GC 4554) ([2]; Enterococcus faecalis (GC 4554)): 16 µg/mL (≈ 11 µM)
MIC Enterococcus faecalis (GC 6189) ([2]; Enterococcus faecalis (GC 6189)): 8 µg/mL (≈ 5.49 µM)
MIC Enterococcus faecium (GC 2243) ([2]; Enterococcus faecium (GC 2243)): 8 µg/mL (≈ 5.49 µM)
MIC Enterococcus faecium (GC 4556) ([2]; Enterococcus faecium (GC 4556)): 8 µg/mL (≈ 5.49 µM)
MIC Enterococcus faecium (GC 4557) ([2]; Enterococcus faecium (GC 4557)): 4 µg/mL (≈ 2.74 µM)
MIC Enterococcus avium (GC 4558) [2, 5]: 4 µg/mL (≈ 2.74 µM)
MIC Enterococcus faecalis (ATCC 29212) [2, 5]: 16 µg/mL (≈ 11 µM)
MIC Enterococcus faecalis (GC 2242) [2, 5]: 8 µg/mL (≈ 5.49 µM)
MIC Enterococcus faecalis (GC 2691) [2, 5]: 8 µg/mL (≈ 5.49 µM)
MIC Enterococcus faecalis (GC 3059) [2, 5]: 8 µg/mL (≈ 5.49 µM)
MIC Enterococcus faecalis (GC 4552) [2, 5]: 16 µg/mL (≈ 11 µM)
MIC Enterococcus faecalis (GC 4553) [2, 5]: 8 µg/mL (≈ 5.49 µM)
MIC Enterococcus faecalis (GC 4554) [2, 5]: 16 µg/mL (≈ 11 µM)
MIC Enterococcus faecalis (GC 6189) [2, 5]: 8 µg/mL (≈ 5.49 µM)
MIC Enterococcus faecium (GC 2243) [2, 5]: 8 µg/mL (≈ 5.49 µM)
MIC Enterococcus faecium (GC 4556) [2, 5]: 8 µg/mL (≈ 5.49 µM)
MIC Enterococcus faecium (GC 4557) [2, 5]: 4 µg/mL (≈ 2.74 µM)
MIC Staphylococcus aureus (ATCC 29213) ([3]; strain ATCC 29213): 4 µg/mL (≈ 2.74 µM)
MIC Staphylococcus aureus (GC 1131) ([3]; strain GC 1131): 8 µg/mL (≈ 5.49 µM)
MIC Staphylococcus aureus (GC 3051) ([3]; strain GC 3051): 8 µg/mL (≈ 5.49 µM)
MIC Staphylococcus aureus (GC 3053) ([3]; strain GC 3053): 8 µg/mL (≈ 5.49 µM)
MIC Staphylococcus aureus (GC 4541) ([3]; strain GC 4541): 4 µg/mL (≈ 2.74 µM)
MIC Staphylococcus aureus (GC 4542) ([3]; strain GC 4542): 4 µg/mL (≈ 2.74 µM)
MIC Staphylococcus aureus-SMITH (GC 4543) ([3]; strain GC 4543): 4 µg/mL (≈ 2.74 µM)
MIC Staphylococcus aureus (GC 4544) ([3]; strain GC 4544): 8 µg/mL (≈ 5.49 µM)
MIC Staphylococcus aureus (GC 4545) ([3]; strain GC 4545): 4 µg/mL (≈ 2.74 µM)
MIC Coagulase Negative Staphylococcus (GC 4547) ([3]; strain GC 4547): 8 µg/mL (≈ 5.49 µM)
MIC Coagulase Negative Staphylococcus (GC 4548) ([3]; strain GC 4548): 4 µg/mL (≈ 2.74 µM)
MIC Coagulase Negative Staphylococcus (GC 4549) ([3]; strain GC 4549): 4 µg/mL (≈ 2.74 µM)
MIC Coagulase Negative Staphylococcus (GC 4551) ([3]; strain GC 4551): 4 µg/mL (≈ 2.74 µM)
MIC Coagulase Negative Staphylococcus (GC 6257) ([3]; strain GC 6257): 4 µg/mL (≈ 2.74 µM)
MIC Streptococcus agalactiae (GC 4564) ([4]; Streptococcus agalactiae (GC 4564)): 2 µg/mL (≈ 1.37 µM)
MIC Streptococcus pneumoniae (ATCC 6301) ([4]; Streptococcus pneumoniae (ATCC 6301)): 1 µg/mL (≈ 0.686 µM)
MIC Streptococcus pneumoniae (GC 1894) ([4]; Streptococcus pneumoniae (GC 1894)): 0.25 µg/mL (≈ 0.172 µM)
MIC Streptococcus pneumoniae (GC 4565) ([4]; Streptococcus pneumoniae (GC 4565)): 2 µg/mL (≈ 1.37 µM)
MIC Streptococcus pyogenes (GC 4563) ([4]; Streptococcus pyogenes (GC 4563)): 2 µg/mL (≈ 1.37 µM)
MIC Streptococcus agalactiae (GC 4564) [4, 5]: 2 µg/mL (≈ 1.37 µM)
MIC Streptococcus pneumoniae (ATCC 6301) [4, 5]: 1 µg/mL (≈ 0.686 µM)
MIC Streptococcus pneumoniae (GC 1894) [4, 5]: 0.25 µg/mL (≈ 0.172 µM)
MIC Streptococcus pneumoniae (GC 4565) [4, 5]: 2 µg/mL (≈ 1.37 µM)
MIC Streptococcus pyogenes (GC 4563) [4, 5]: 2 µg/mL (≈ 1.37 µM)
SMILES: CC(c1ccccc1)C1NC(=O)CNC(=O)C(CO)NC(=O)C(CC2CNC(=N)N2C2OC(CO)C(O)C(O)C2O)NC(=O)C(CC2CNC(=N)N2)NC(=O)C(Cc2ccc(OC3OC(CO)C(OC4OC5COC(c6ccc(OCc7ccccc7)cc6)OC5C(O)C4O)C(O)C3O)cc2)NC1=O (stereo not shown) [Example 191]
MIC Staphylococcus haemolyticus (GC 4546) ([3]; strain GC 4546): 4 µg/mL (≈ 2.74 µM)
